{"source": "patent US20080064668A1", "about": "“1,3-Diacylated, 26,27-Alkyl/Haloakyl Vitamin D3 Compounds and Methods of Use Thereof” (BioXell S.p.A., priority 2003, published 2008)", "key": {"NHEK": {"tested_on": "NHEK", "assay": "Proliferation assay, NHEK normal human keratinocytes", "assay_type": "cell-based", "details": "Homo sapiens, NHEK; 72 h culture, CyQuant proliferation assay", "procedure": "(§1) Bladder cancer cell lines (T24, RT112, HT1376 and RT4 are human bladder cancer cell lines; NHEK are normal human keratinocytes) were obtained from the European Collection of Cell Cultures (Salisbury, UK). Cells were plated at 3×10^3 per well, in flat bottomed 96-well plates in 100 μl of DMEM medium containing: 5% Fetal Clone I, 50 μg/l gentamicin, 1 mM sodium pyruvate and 1% non-essential amino acids. After culturing for 24 h at 37° C. in 5% CO2, to allow cells to adhere to the plates, VDR ligands (compounds (2), (4), (5) and other vitamin D3 analogs as shown in Table 4) were added at concentrations ranging from 100 μM to 0.3 μM in 100 μl of above-mentioned complete medium. After a further 72 h of culture, cell proliferation was measured using a fluorescence-based proliferation assay kit. (CyQuant Cell Proliferation Assay Kit, Molecular Probes, Eugene, Oreg., USA). The IC50 was calculated from the regression curve of the titration data."}, "IFN-γ production": {"tested_on": "IFN-γ production", "assay": "IFN-γ production in the mixed leukocyte response (MLR)", "assay_type": "cell-based", "details": "120 h; allogeneic PBMC from 2 donors, 5 days, ELISA; read-out: INF-γ IC50", "procedure": "Immature dendritic cells (DC) were prepared as described in Romani, N. et al. (Romani, N. et al. (1996) J. Immunol. Meth. 196:137). IFN-γ production by allogeneic T cell activation in the mixed leukocyte response (MLR) was determined as described in Penna, G., et al., J Immunol., 164: 2405-2411 (2000).\nBriefly, peripheral blood mononuclear cells (PBMC) were separated from buffy coats by Ficoll gradient and the same number (3×10^5) of allogeneic PBMC from 2 different donors were co-cultured in 96-well flat-bottom plates. The vitamin D3 compounds were added to each of the cultures."}, "[1]": {"tested_on": "rats with CYP-induced cystitis", "assay": "Cyclophosphamide (CYP) induced chronic IC in rats, cystometry", "assay_type": "in vivo, Wistar rats", "description": "The rat model of chemical cystitis induced by intraperitoneal injection of CYP has been well accepted. CYP is used in clinical practice in the treatment of a number of malignant tumors. One of its metabolites, acrolein, is excreted in urine in large concentrations causing hemorrhagic cystitis associated with symptoms of urinary frequency, urgency and pelvic pain. The inflammatory process is characterized by changes in gross histology of bladder, increase in number and distribution of inflammatory cell infiltrates (mast cells, macrophage, PMNs), cyclo-oxygenase-2 expression and prostaglandin production, growth factor and cytokine production. […]\nThis model was used to test the effects of 1,25-dihydroxyvitamin D3 analogue in rats with CYP-induced cystitis. The effects of the treatment on the cystometric parameters in a conscious freely moving rat with CYP-induced cystitis were monitored. The following cystometric parameters were recorded in each animal: bladder capacity, filling pressure (pressure at the beginning of the bladder filling), threshold pressure (bladder pressure immediately prior to micturition), micturition pressure (the maximal bladder pressure during micturition), presence or absence of non-voiding bladder contractions (increases in bladder pressure of at least 10 cm H20 without release of urine), and amplitude of non-voiding bladder contraction. […]"}, "HT 1376": {"tested_on": "HT 1376", "assay": "Proliferation assay using bladder cancer cell lines, HT1376", "assay_type": "cell-based, human", "details": "Homo sapiens, HT-1376; 72 h culture, CyQuant proliferation assay", "procedure": "as §1"}}}
{"smiles": "CC(=O)OC1C/C(=C/C=C2\\CCC[C@]3(C)C(C(C)C/C=C\\C(O)(C(F)(F)F)C(F)(F)F)=CCC23)C[C@@H](OC(C)=O)C1", "note": "(stereo partly shown) [Compound (2), 1,3-Di-O-acetyl-1,25-dihydroxy-16,23Z-diene-26,27-hexafluoro-19-nor-cholecalciferol]", "values": [{"measurement": "IC50", "setting": "NHEK", "value": 9.8, "unit": "µM"}, {"measurement": "IC50", "setting": "IFN-γ production", "value": 0.722, "unit": "nM"}, {"measurement": "ability to treat bladder dysfunction", "setting": "[1]", "value": "has the ability to treat bladder dysfunction"}, {"measurement": "IC50", "setting": "HT 1376", "value": 100, "unit": "µM"}]}
